Measured values as given in article PMC11274883, “Anticancer Effect of Pt^[sequence], Pt^II5MESS, Pt^II56MESS and Their Platinum(IV)-Dihydroxy Derivatives against Triple-Negative Breast Cancer and Cisplatin-Resistant Colorectal Cancer” (Cancers, 2024).

Experiments:
MDA−MB−231 cells [1] = assay: Western blot protein expression; format: cell-based; conditions: MDA−MB−231, IC50, 72 h; for β-actin/GAPDH normalized to control (1): representative blot Figure S24A; for β-tubulin/GAPDH normalized to control (1): representative blot Figure S24B; for α-tubulin/GAPDH normalized to control (1): representative blot Figure S24C; for p-AKT/AKT/GAPDH normalized to control (1): representative blot Figure S25A; for p-ERK/ERK/GAPDH normalized to control (1): representative blot Figure S25B; for p53/GAPDH normalized to control (1): representative blot Figure S25C; for p21/GAPDH normalized to control (1): representative blot Figure S25D; for Bax/GAPDH normalized to control (1): representative blot Figure S26A; for Bcl2/GAPDH normalized to control (1): representative blot Figure S26B; for Cytochrome C/GAPDH normalized to control (1): representative blot Figure S26C; for Procaspase 8/GAPDH normalized to control (1): representative blot Figure S26D; for Cleaved BID/GAPDH normalized to control (1): representative blot Figure S26E; for Procaspase 9/GAPDH normalized to control (1): representative blot Figure S26F; for Procaspase 3/GAPDH normalized to control (1): representative blot Figure S26G; for PARP-1/GAPDH normalized to control (1): representative blot Figure S26H; for Beclin1/GAPDH normalized to control (1): representative blot Figure S27A; for ATG5/GAPDH normalized to control (1): representative blot Figure S27B; for ATG16L1/GAPDH normalized to control (1): representative blot Figure S27C; for ATG9A/GAPDH normalized to control (1): representative blot Figure S27D; for ATG4B/GAPDH normalized to control (1): representative blot Figure S27E; for LC3B/GAPDH normalized to control (1): representative blot Figure S27F
Summary of the method: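 Cells were lysed in RIPA buffer with orthovanadate, and 20 µg protein was run on SDS-PAGE, transferred to PVDF and probed for proliferation, apoptosis, microtubule and autophagy markers. ECL band intensities were normalised to GAPDH and then to untreated control. Three independent experiments were run per marker.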

HT29 cells = assay: Label-free quantitative proteomics; format: cell-based, Homo Sapiens; conditions: HT29, IC50, 72 h
Description: (§1) The supernatant was then collected into 15 mL tubes, then the cells were washed with PBS and trypsinised. The detached cells were transferred to allocated tubes and centrifuged at 500× g for 5 min at 4 °C. Cell pellet was washed twice with PBS and then resuspended in 300 µL cell lysis buffer (RIPA) for 30 min on ice. Cell extracts were then centrifuged at 12,000× g for 15 min at 4 °C, and the supernatants (containing the proteins) were collected into Lo-Bind Eppendorf. The Bio-Rad protein assay (Bio-Rad, Hercules, CA, USA) was used to assess protein content. For protein extraction and delipidation 100 µL of the cell homogenate was moved to 1.7 mL Lo-Bind Eppendorf tubes and 450 µL methanol was added to the mixture and vortexed. Chloroform (150 µL) was next added and vortexed. Then, water (450 µL) was added to the mixture, vortexed and centrifuged for 5 min at 12,000× g, which formed the protein pellet at the organic/aqueous interface. The layer of chloroform was removed and then 400 µL of methanol was added. The sample was then vortexed and centrifuged at 12,000× g for 15 min. The supernatant was then aspirated and discarded. The pellet was then washed with methanol (400 µL). The supernatant was removed, and the pellets were air-dried overnight. Next, steps were performed for reduction, alkylation, and tryptic digestion of the protein. 0.1% RapiGest (Waters, Milford, MA, USA) in 50 mM aqueous ammonium bicarbonate (20 µL) was added to the air-dried pellet and vortexed for effective suspension. The pellet should completely dissolve. Then, 50 µL of 7 mM DTT in 50 mM aqueous ammonium bicarbonate was added, to give a final concentration of 5 mM DTT. Samples were then heated for 30 min at 60 °C and cooled to room temperature. Iodoacetamide (45 mM) in 50 mM aqueous ammonium bicarbonate was next added to give a concentration of 15 mM. The mixture was allowed to react in the dark for 30 min. Then, 10 ng/µL of Trypsin Gold, Mass spectrometry grade (Promega, NSW, Australia) was added for digestion to occur at room temperature overnight. And 50 µL of 4% (v/v) aqueous trifluoroacetic acid was then added to each tube. Samples were next heated for 45 min at 37 °C to effect decomposition of RapiGest. Samples were then centrifuged at 12,000× g for 10 min at 4 °C. Supernatants were then transferred to total recovery vials and run on a nanoAcquity Ultra-Performance Liquid Chromatography (UPLC) coupled with a Synapt G2-Si instrument (Waters, MA, USA) was used for label-free quantitative protein profiling. Nano-proteomics method is detailed in Method S1. Three independent experiments in triplicates were implemented, while all samples were analysed in a single run with a single injection (1 µL) for each trial. Mass spectrometry (MS) data were processed using Progenesis QI for proteomics (version 4.1, Nonlinear Dynamics, Newcastle upon Tyne, UK), and aligned using UniProt Homo Sapiens reference database IDEP9.6 utilised to cluster and retrieve the initial signature analyses. […] Enrichment studies were performed using gene lists that corresponded to the identified proteins. Overrepresentation analysis was performed based on Gene Ontology (GO) Biological Processes, GO Cellular Components, and GO Molecular Functions using iDEP. Enrichment maps and STRING apps were used to construct pathways networks and explore protein–protein interactions.

MDA−MB−231 cells [2] = assay: Label-free quantitative proteomics; format: cell-based, Homo Sapiens; conditions: MDA−MB−231, IC50, 72 h, p < 0.05, fold change > 2
Description: as §1

SMILES	β-actin/GAPDH normalized to control (1) (MDA−MB−231 cells [1])	β-tubulin/GAPDH normalized to control (1) (MDA−MB−231 cells [1])	α-tubulin/GAPDH normalized to control (1) (MDA−MB−231 cells [1])	p-AKT/AKT/GAPDH normalized to control (1) (MDA−MB−231 cells [1])	p-ERK/ERK/GAPDH normalized to control (1) (MDA−MB−231 cells [1])	p53/GAPDH normalized to control (1) (MDA−MB−231 cells [1])	p21/GAPDH normalized to control (1) (MDA−MB−231 cells [1])	Bax/GAPDH normalized to control (1) (MDA−MB−231 cells [1])	Bcl2/GAPDH normalized to control (1) (MDA−MB−231 cells [1])	Cytochrome C/GAPDH normalized to control (1) (MDA−MB−231 cells [1])	Procaspase 8/GAPDH normalized to control (1) (MDA−MB−231 cells [1])	Cleaved BID/GAPDH normalized to control (1) (MDA−MB−231 cells [1])	Procaspase 9/GAPDH normalized to control (1) (MDA−MB−231 cells [1])	Procaspase 3/GAPDH normalized to control (1) (MDA−MB−231 cells [1])	PARP-1/GAPDH normalized to control (1) (MDA−MB−231 cells [1])	Beclin1/GAPDH normalized to control (1) (MDA−MB−231 cells [1])	ATG5/GAPDH normalized to control (1) (MDA−MB−231 cells [1])	ATG16L1/GAPDH normalized to control (1) (MDA−MB−231 cells [1])	ATG9A/GAPDH normalized to control (1) (MDA−MB−231 cells [1])	ATG4B/GAPDH normalized to control (1) (MDA−MB−231 cells [1])	further results
Cc1c(C)c2cccnc2c2ncccc12.N[C@H]1CCCC[C@@H]1N.O=[N+]([O-])[O-].O=[N+]([O-])[O-].[OH][Pt+2][OH] [Pt^IV56MESS(OH)2, [Pt(5,6-dimethyl-1,10-phenanthroline)(1S,2S-diaminocyclohexane)(dihydroxy)](NO3)2]	0.6671	0.4289	1.359	0.79	0.2828	1.183	1.053	2.6	0.8651	2.185	0.568	8.533	0.4557	0.9471	0.6182	0.9592	0.8924	1.456	0.8822	2.179	LC3B/GAPDH normalized to control (1) (MDA−MB−231 cells [1]): 0.7501; detected up and down differentially regulated proteins (HT29 cells): 3; number of downregulated differentially expressed proteins (MDA−MB−231 cells [2]): 3; number of upregulated differentially expressed proteins (MDA−MB−231 cells [2]): 8
N[C@H]1CCCC[C@@H]1N.O=[N+]([O-])[O-].O=[N+]([O-])[O-].[OH-].[OH-].[Pt+4].c1cnc2c(c1)ccc1cccnc12 [[Pt(1,10-phenanthroline)(1S,2S-diaminocyclohexane)(dihydroxy)](NO3)2]	0.835	0.6552	0.9279	1.063	0.1206	1.176	1.346	1.398	0.7843	2.378	0.2888	1.33	0.2675	0.4093	0.5717	1.408	1.129	0.9987	0.774	1.581	LC3B/GAPDH normalized to control (1) (MDA−MB−231 cells [1]): 0.6076; detected up and down differentially regulated proteins (HT29 cells): no detected differentials; number of downregulated differentially expressed proteins (MDA−MB−231 cells [2]): 5; number of upregulated differentially expressed proteins (MDA−MB−231 cells [2]): 9
N[C@H]1CCCC[C@@H]1N.O=[N+]([O-])[O-].O=[N+]([O-])[O-].[Pt+2].c1cnc2c(c1)ccc1cccnc12 [[Pt(1,10-phenanthroline)(1S,2S-diaminocyclohexane)](NO3)2]	0.4744	1.15	0.9355	0.6042	0.6771	1.105	1.812	1.161	0.8361	1.827	0.5195	13.39	0.2042	0.3207	0.7775	1.911	0.7762	0.6758	0.361	1.546	LC3B/GAPDH normalized to control (1) (MDA−MB−231 cells [1]): 0.9969; number of downregulated differentially expressed proteins (HT29 cells; p < 0.05, fold change > 2): 10; number of upregulated differentially expressed proteins (HT29 cells; p < 0.05, fold change > 2): 9; number of downregulated differentially expressed proteins (MDA−MB−231 cells [2]): 7; number of upregulated differentially expressed proteins (MDA−MB−231 cells [2]): 14
